Reference: patent US4603130A, “1-substituted-2-(piperazinyl or homopiperazinyl)-benzimidazole compounds and pharmaceutical composition” (Kanebo, Ltd., priority 1983, dated 1986)
Where a name gives a salt, the structure may show the parent alone.

Experiments:
[1] = system: histamine-induced lethality; experiment: Protecting activity against histamine-induced lethality (similar to Labelle-Tislow method), oral; type: in vivo, Hartley strain male and female guinea pigs; details: Cavia porcellus, 2 h, guinea pig, p.o. 1 h before histamine 1.1 mg/kg i.v., survival after two hours, Probit method, Example 9 as free base, others as fumarate
Experimental: 1. Protecting activity against histamine-induced lethality:
(3) Homochlorcyclizine hydrochloride (reference compound)
The test was carried out by a method similar to Labelle-Tislow method [cf. J. Pharmacol. Exp. Ther., 113, 72, 1955]. […] After one hour, histamine (1.1 mg/kg, in a physiological saline solution) was injected to the animals in cephalic vein. After two hours, the number of live guinea pigs was counted, and therefrom ED50 of the compounds was calculated according to Probit method.

[2] = in vivo; details: mouse, in vivo, po; mice, p.o., deaths within one week; Weil's method; Example 9 as free base, others as fumarate; read-out: Acute Toxicity LD50
Excerpt: (§1) 2. Acute toxicity (LD50):
(§2) The same compounds as used in the above protecting activity against histamine were used.

[3] = system: mice; experiment: in vivo; details: p.o., deaths within one week, Weil's method, Example 9 as free base, others as fumarate, 10080 min
Excerpt: as §1, §2

[4] = system: hexobarbital-induced sleep; experiment: Potentiating effect on hexobarbital-induced sleep in mice; type: in vivo; details: 25 mg/kg (p.o.)
Excerpt: Besides, the conventional antihistaminics have side-effect such as hypnotic activity.

[5] = among compounds of U.S. Pat. No. 3,423,413; cited from earlier work

Structure (SMILES)	ED50 [1] [mg/kg]	LD50 at 168 h [2] [mg/kg]	Acute Toxicity LD50 [3] [mg/kg]	potentiating effect on hexobarbital-induced sleep [4]	anti-allergic activity [5]
CCOCCn1c(CN2CCN(CCO)CC2)nc2ccccc21 [Example 7, 1-(2-ethoxyethyl)-2-[4-(2-hydroxyethyl)-1-piperazinyl]methylbenzimidazole]	0.004	> 2000			
C#CCOCCn1c(CN2CCCN(C)CC2)nc2ccccc21 [Example 12, 1-(2-propargyloxyethyl)-2-(4-methyl-1-homopiperazinyl)methylbenzimidazole]	0.017	524			
C=COCCn1c(CN2CCN(C)CC2)nc2ccccc21 [Example 9, 1-(2-vinyloxyethyl)-2-(4-methyl-1-piperazinyl)methylbenzimidazole]	0.0071	698			
CN1CCCN(C(c2ccccc2)c2ccc(Cl)cc2)CC1 (stereo not drawn) [Homochlorcyclizine hydrochloride, reference compound]	0.26		382	showed remarkable potentiating effect	
CCOCCn1c(CN2CCNCC2)nc2ccccc21 [Example 1, 1-(2-ethoxyethyl)-2-(1-piperazinyl)methylbenzimidazole]	0.0033	> 2000			
C=CCOCCn1c(CN2CCN(C)CC2)nc2ccccc21 [Example 10, 1-(2-allyloxyethyl)-2-(4-methyl-1-piperazinyl)methylbenzimidazole]	0.0059	657			
OCCN1CCN(Cc2nc3ccccc3n2Cc2ccc(F)cc2)CC1 [Compound A, 1-(4-fluorobenzyl)-2-[4-(2-hydroxyethyl)-1-piperazinyl]methylbenzimidazole, reference compound]	0.026	440			most potent anti-allergic activity
C#CCOCCn1c(CN2CCN(C)CC2)nc2ccccc21 [Example 11, 1-(2-propargyloxyethyl)-2-(4-methyl-1-piperazinyl)methylbenzimidazole]	0.0023	891			
CCCN1CCN(Cc2nc3ccccc3n2CCOCC)CC1 [Example 6, 1-(2-ethoxyethyl)-2-(4-n-propyl-1-piperazinyl)methylbenzimidazole]	0.0095	303			
CCOCCn1c(CN2CCN(CC)CC2)nc2ccccc21 [Example 5, 1-(2-ethoxyethyl)-2-(4-ethyl-1-piperazinyl)methylbenzimidazole]	0.0067	904			
CCOCCn1c(CN2CCCN(C)CC2)nc2ccccc21 [Example 4, 1-(2-ethoxyethyl)-2-(4-methyl-1-homopiperazinyl)methylbenzimidazole]	0.0092	990			
CCCOCCn1c(CN2CCN(C)CC2)nc2ccccc21 [Example 8, 1-(2-n-propoxyethyl)-2-(4-methyl-1-piperazinyl)methylbenzimidazole]	0.0059	1010			
CCOCCn1c(CN2CCN(C)CC2)nc2ccccc21 [Example 3, 1-(2-ethoxyethyl)-2-(4-methyl-1-piperazinyl)methylbenzimidazole]	0.0026	789			
CCOCCn1c(CN2CCCNCC2)nc2ccccc21 [Example 2, 1-(2-ethoxyethyl)-2-(1-homopiperazinyl)methylbenzimidazole]	0.014	1540			
